# Key:
# hGlyR-α1 = biological target: T1, hGlyR-α1 (Homo sapiens, UniProt P23415); type: cell-based; conditions: for potentiation effect on the channel current (representative traces): 10 μM modulator, glycine EC5, Figure 5a; for potentiation up to the maximum tested concentration: up to 10 μM, glycine EC5
# T1 sequence (P23415 29-457): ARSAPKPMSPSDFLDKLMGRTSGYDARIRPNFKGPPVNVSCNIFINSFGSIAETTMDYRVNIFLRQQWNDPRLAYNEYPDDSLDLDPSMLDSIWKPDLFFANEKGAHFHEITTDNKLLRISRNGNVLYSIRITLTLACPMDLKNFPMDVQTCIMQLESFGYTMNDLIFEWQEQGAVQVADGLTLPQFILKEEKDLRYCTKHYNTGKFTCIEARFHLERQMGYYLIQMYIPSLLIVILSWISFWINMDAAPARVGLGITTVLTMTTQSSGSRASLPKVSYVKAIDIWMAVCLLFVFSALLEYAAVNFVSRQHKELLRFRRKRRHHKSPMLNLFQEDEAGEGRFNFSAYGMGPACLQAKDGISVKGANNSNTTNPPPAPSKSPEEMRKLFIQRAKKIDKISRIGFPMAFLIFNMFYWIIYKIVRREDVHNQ
# α7nAChR = conditions: previous finding; cited from earlier work
SMILES,potentiation effect on the channel current (representative traces) (hGlyR-α1),potentiation up to the maximum tested concentration (hGlyR-α1),effect on α7nAChR function (α7nAChR)
Cc1nc2c([nH]1)-c1ccccc1N(C(=O)c1ccc(NC(=O)c3ccccc3-c3ccccc3)cc1)CC2 [Conivaptan],no potentiation,did not show potentiation,–
COc1cc(OC)c(NC(=O)Nc2cc(C)on2)cc1Cl [PNU-120596],–,did not show potentiation,–
O=c1[nH]c2ccccc2n1C1CCN(CCCC(c2ccc(F)cc2)c2ccc(F)cc2)CC1 [Pimozide],much greater potentiation effect on the channel current than THC,–,–
"CCCCCc1cc(O)c2c(c1)OC(C)(C)[C@@H]1CCC(C)=C[C@@H]21 [THC, Δ^9-tetrahydrocannabinol]",–,–,little effect

# Source: PMC4414066 (Journal of medicinal chemistry, 2015)
